Structures are written as SMILES. ≈ marks a conversion by molar mass, not a printed value. Read-outs that look alike come from different tables or passages of the source. Some results are limits rather than exact numbers.

This is an account of results in patent US20240360194A1, “New Peptides as Potent and Selective GIP Receptor Agonists” (Sanofi, priority 2021, published 2024).

The nature of series [1]: Solubility assessment (UHPLC-UV of supernatant, target 10 mg/ml). Format: physicochemical. The settings on record: read-out: Soluble amount. The method, boiled down: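 Peptides at 10 mg/ml (purity-corrected) in 100 mM phosphate pH 7.4, optionally with 2.7 mg/ml m-cresol; gentle agitation 1 h, then 5° C. overnight (24 h). Supernatant after 15 min centrifugation at 2500 RCF quantified by UHPLC-UV, with sequence-based extinction coefficients.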

Series [2] addresses T1, human GLP-1 receptor (hGLP-1R) (Homo sapiens, UniProt P43220). Kind of series: In vitro cellular cAMP assay for GLP-1 receptor efficacy (HEK-293 cell line over-expressing receptor). The settings on record: HEK-293, 0.1% BSA. It is filed as cell-based. (In general: Changes in cAMP serve as a functional read-out for many G protein-coupled receptors.)
For series [3], the target named is T1, human GLP-1 receptor (hGLP-1R). Description: Binding assay, displacement of [125I]GLP-1 from HEK-293 membranes over-expressing GLP-1R (SPA). The settings on record: [125I]GLP-1 displacement. Here is the method: (1) Preparation of Membranes from HEK-293 Cells Over-Expressing GIPR or GLP-1R
HEK-293 cells recombinantly over-expressing GIPR or GLP-1R were grown to 50% confluency, washed with warm 1×PBS (Gibco) and detached in HEPES/EDTA-buffer (100 mM HEPES pH 7.5, 5 mM EDTA). Cells were harvested by centrifugation at 4° C. and 3000×g and the pellets were stored at −80° C. until further processing.
After thawing on ice, pellets were resuspended in HEPES/EDTA-buffer and homogenized on ice for 1 min using Ultra-Turray T25. After subsequent sonification the cell debris was removed by centrifugation at 1000×g and 4° C. Supernatants were then ultra-centrifuged at 100000×g and 4° C. under vacuum for 30 min. Pellets were resuspended in HEPES/EDTA/NaCl-buffer (20 mM HEPES, 1 mM EDTA, 150 mM NaCl; add 1 Complete Mini Protease inhibitor cocktail to 10 ml buffer) and protein content was determined via BCA-Protein assay.
(2) Measurement of Binding Activity of Test Compounds to Human GIPR or GLP-1R

In series [4] the target is T2, human GIP receptor (Homo sapiens, UniProt P48546).
T2 construct: human adipocytes endogenously expressing the human GIP receptor; host or cells: human preadipocytes (Lonza) differentiated to adipocytes
T2 sequence (P48546 22-466): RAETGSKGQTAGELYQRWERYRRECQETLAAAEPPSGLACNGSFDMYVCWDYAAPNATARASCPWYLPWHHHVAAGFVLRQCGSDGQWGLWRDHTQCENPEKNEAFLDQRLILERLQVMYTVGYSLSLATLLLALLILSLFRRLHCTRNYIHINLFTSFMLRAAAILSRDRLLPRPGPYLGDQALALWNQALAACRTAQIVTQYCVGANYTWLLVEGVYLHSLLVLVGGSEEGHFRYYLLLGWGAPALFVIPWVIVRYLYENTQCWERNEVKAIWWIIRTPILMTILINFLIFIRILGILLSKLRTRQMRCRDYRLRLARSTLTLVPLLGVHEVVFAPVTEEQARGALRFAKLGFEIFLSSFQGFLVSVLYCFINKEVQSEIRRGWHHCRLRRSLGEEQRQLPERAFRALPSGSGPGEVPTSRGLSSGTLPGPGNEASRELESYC
Description: In vitro cellular cAMP assay for GIP receptor efficacy (human adipocytes). Format: cell-based. The note with it: for EC50: read-out: hGIPR EC50; for Emax: read-out: hGIPR Emax. The method, boiled down:
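Human preadipocytes expanded, then differentiated 6 days (insulin, dexamethasone, PPARγ agonist, 200 μM IBMX, L-thyroxine) before plating at 5000 cells/well. Test compound applied 30 min at room temperature; cAMP measured by HTRF after 1 h with lysis-buffer reagents, read as 665/620 nm fluorescence ratio.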

The target of series [5] is T3, human GIP receptor (hGIPR) (Homo sapiens, UniProt P48546).
T3 sequence (P48546 22-466): T2 sequence (P48546 22-466)
Kind of series: Binding assay, displacement of [125I]GIP from HEK-293 membranes over-expressing GIPR (SPA). The settings on record: [125I]GIP displacement. The method, boiled down: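 Membranes from HEK-293 cells over-expressing human GIPR or GLP-1R, isolated by homogenising, sonicating and ultracentrifuging at 100000×g into HEPES/EDTA/NaCl buffer with protease inhibitors, were used for binding.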
Background: Displacement assays read how much labelled ligand stays bound in the presence of the test substance.

Series [6] concerns the target T3, human GIP receptor (hGIPR). Kind of series: In vitro cellular cAMP assay for GIP receptor efficacy (HEK-293 cell line over-expressing receptor). The note with it: EC50 hGIPR 0.1% BSA, HEK-293, 0.1% BSA. It is filed as cell-based.
[7] abbreviates: 100 mM phosphate buffer pH 7.4 (solubility buffer system A), pH 7.4, Solubility buffer system A: 100 mM phosphate buffer pH 7.4.
Setting [8] is: pH 7.4, Solubility buffer system C: 100 mM phosphate buffer pH 7.4, 2.7 mg/ml m-cresol.

T1 sequence (P43220 24-463): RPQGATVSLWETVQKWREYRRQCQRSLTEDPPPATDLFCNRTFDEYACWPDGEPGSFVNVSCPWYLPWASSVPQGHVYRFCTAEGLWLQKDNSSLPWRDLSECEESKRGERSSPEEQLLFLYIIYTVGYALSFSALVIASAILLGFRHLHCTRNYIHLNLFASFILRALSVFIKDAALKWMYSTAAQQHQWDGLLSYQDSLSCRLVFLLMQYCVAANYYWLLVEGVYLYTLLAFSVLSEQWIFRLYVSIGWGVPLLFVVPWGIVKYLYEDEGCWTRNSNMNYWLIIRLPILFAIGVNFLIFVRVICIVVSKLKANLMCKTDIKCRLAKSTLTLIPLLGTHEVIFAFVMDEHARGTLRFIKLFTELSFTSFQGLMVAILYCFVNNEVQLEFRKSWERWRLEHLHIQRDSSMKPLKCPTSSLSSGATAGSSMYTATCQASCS

By EC50 is commonly meant the concentration at which the effect is half-maximal. As a reminder, the IC50 is the concentration that gives 50% inhibition. Low values mean greater potency in that assay, high ones weaker potency in that assay. The Emax is the size of the effect at its maximum, as opposed to the concentration needed. `CC[C@H](C)[C@H](NC(=O)[C@H](Cc1ccccc1)NC(=O)[C@H](CCC(=O)O)NC(=O)[C@H](CCC(=O)O)NC(=O)[C@H](CCC(N)=O)NC(=O)[C@H](Cc1c[nH]cn1)NC(=O)[C@@H](NC(=O)[C@H](CCCNC(=N)N)NC(=O)[C@H](CC(=O)O)NC(=O)[C@H](CCCCNC(=O)COCCOCCNC(=O)COCCOCCNC(=O)CC[C@H](NC(=O)CCCCCCCCCCCCCCCCCCC(=O)O)C(=O)O)NC(=O)C(C)(C)NC(=O)[C@@H](NC(=O)[C@H](CO)NC(=O)[C@H](CC(C)C)NC(=O)[C@H](CC(=O)O)NC(=O)[C@H](CO)NC(=O)[C@@H](NC(=O)[C@H](Cc1ccccc1)NC(=O)[C@@H](NC(=O)CNC(=O)[C@H](CCC(=O)O)NC(=O)C(C)(C)NC(=O)[C@@H](N)Cc1ccc(O)cc1)[C@@H](C)O)[C@@H](C)CC)[C@@H](C)CC)[C@@H](C)CC)C(=O)N[C@@H](CCC(=O)O)C(=O)N[C@@H](Cc1c[nH]c2ccccc12)C(=O)N[C@@H](CC(C)C)C(=O)N[C@@H](CC(C)C)C(=O)N[C@@H](C)C(=O)N[C@@H](CCC(N)=O)C(=O)N[C@@H](CCCNC(=N)N)C(=O)NCC(N)=O` [SEQ ID NO: 5, H2N-Y-Aib-E-G-T-F-I-S-D-L-S-I-Aib-K[{AEEA}2-gGlu-C20OH]-D-R-I-H-Q-E-E-F-I-E-W-L-L-A-Q-R-G-NH2]: the solubility at 24 h in series [1] (setting [7]) was determined as 5200 µg/mL (≈ 1180 µM). Moreover, the EC50 is more than 10 nM in series [2], 2.1 nM in series [4] and 0.0518 nM in series [6]. The IC50 stood at 236 nM in series [3] and 0.7 nM in series [5]. For the same compound, the Emax in series [4] stood at 114%.

Regarding `CC[C@H](C)[C@H](NC(=O)[C@H](CCCNC(=N)N)NC(=O)[C@H](CC(=O)O)NC(=O)[C@H](CCCCNC(=O)CNC(=O)CNC(=O)CNC(=O)CC[C@H](NC(=O)CCCCCCCCCCCCCCCCC(=O)O)C(=O)O)NC(=O)C(C)(C)NC(=O)[C@@H](NC(=O)[C@H](CO)NC(=O)[C@H](CC(C)C)NC(=O)[C@H](CC(=O)O)NC(=O)[C@H](CO)NC(=O)[C@@H](NC(=O)[C@H](Cc1ccccc1)NC(=O)[C@@H](NC(=O)CNC(=O)[C@H](CCC(=O)O)NC(=O)C(C)(C)NC(=O)[C@@H](N)Cc1ccc(O)cc1)[C@@H](C)O)[C@@H](C)CC)[C@@H](C)CC)C(=O)N[C@@H](Cc1c[nH]cn1)C(=O)N[C@@H](CCC(N)=O)C(=O)NC(C)(C)C(=O)N[C@@H](CCC(=O)O)C(=O)N[C@@H](Cc1ccccc1)C(=O)N[C@H](C(=O)N[C@@H](CCC(=O)O)C(=O)N[C@@H](Cc1c[nH]c2ccccc12)C(=O)N[C@@H](CC(C)C)C(=O)N[C@@H](CC(C)C)C(=O)N[C@@H](C)C(=O)N[C@@H](CCC(N)=O)C(=O)N[C@@H](CCCNC(=N)N)C(=O)NCC(N)=O)[C@@H](C)CC` [SEQ ID NO: 7, H2N-Y-Aib-E-G-T-F-I-S-D-L-S-I-Aib-K[{Gly}3-gGlu-C18OH]-D-R-I-H-Q-Aib-E-F-I-E-W-L-L-A-Q-R-G-NH2], the solubility at 24 h in series [1] (setting [7]) amounted to 9100 µg/mL (≈ 2160 µM); in series [1] (setting [8]) it was 4000 µg/mL (≈ 949 µM). Besides, the EC50 is more than 10 nM in series [2], 0.4 nM in series [4] and 0.00964 nM in series [6]. Moreover, the IC50 in series [3] was found to be 106 nM; in series [5] it was 0.1 nM. Besides, the maximal effect (Emax) in series [4] was determined as 121%.

For the compound `CC[C@H](C)[C@H](NC(=O)[C@H](CCCNC(=N)N)NC(=O)[C@H](CC(=O)O)NC(=O)[C@H](CCCCNC(=O)CN(C)C(=O)CN(C)C(=O)CN(C)C(=O)CC[C@H](NC(=O)CCCCCCCCCCCCCCCCC(=O)O)C(=O)O)NC(=O)C(C)(C)NC(=O)[C@@H](NC(=O)[C@H](CO)NC(=O)[C@H](CC(C)C)NC(=O)[C@H](CC(=O)O)NC(=O)[C@H](CO)NC(=O)[C@@H](NC(=O)[C@H](Cc1ccccc1)NC(=O)[C@@H](NC(=O)CNC(=O)[C@H](CCC(=O)O)NC(=O)C(C)(C)NC(=O)[C@@H](N)Cc1ccc(O)cc1)[C@@H](C)O)[C@@H](C)CC)[C@@H](C)CC)C(=O)N[C@@H](Cc1c[nH]cn1)C(=O)N[C@@H](CCC(N)=O)C(=O)NC(C)(C)C(=O)N[C@@H](CCC(=O)O)C(=O)N[C@@H](Cc1ccccc1)C(=O)N[C@H](C(=O)N[C@@H](CCC(=O)O)C(=O)N[C@@H](Cc1c[nH]c2ccccc12)C(=O)N[C@@H](CC(C)C)C(=O)N[C@@H](CC(C)C)C(=O)N[C@@H](C)C(=O)N[C@@H](CCC(N)=O)C(=O)N[C@@H](CCCNC(=N)N)C(=O)NCC(N)=O)[C@@H](C)CC` [SEQ ID NO: 8, H2N-Y-Aib-E-G-T-F-I-S-D-L-S-I-Aib-K[{N-MeGly}3-gGlu-C18OH]-D-R-I-H-Q-Aib-E-F-I-E-W-L-L-A-Q-R-G-NH2], the solubility at 24 h in series [1] (setting [7]) is more than 10700 µg/mL; in series [1] (setting [8]), 1800 µg/mL (≈ 423 µM). Moreover, the results for the EC50 in series [2], in series [4] and in series [6] were more than 10 nM, 0.7 nM and 0.00745 nM, respectively. Moreover, the IC50 came out at 139 nM in series [3] and 0.1 nM in series [5]. Moreover, the Emax in series [4] was determined as 128%.

Regarding `CC[C@H](C)[C@H](NC(=O)[C@H](Cc1ccccc1)NC(=O)[C@H](CCC(=O)O)NC(=O)[C@H](CCC(=O)O)NC(=O)[C@H](CCC(N)=O)NC(=O)[C@H](Cc1c[nH]cn1)NC(=O)[C@@H](NC(=O)[C@H](CCCNC(=N)N)NC(=O)[C@H](CC(=O)O)NC(=O)[C@H](CCCCNC(=O)COCCOCCNC(=O)COCCOCCNC(=O)CC[C@H](NC(=O)CCCCCCCCCCCCCCCCC(=O)O)C(=O)O)NC(=O)C(C)(C)NC(=O)[C@@H](NC(=O)[C@H](CO)NC(=O)[C@H](CC(C)C)NC(=O)[C@H](CC(=O)O)NC(=O)[C@H](CO)NC(=O)[C@@H](NC(=O)[C@H](Cc1ccccc1)NC(=O)[C@@H](NC(=O)CNC(=O)[C@H](CCC(=O)O)NC(=O)C(C)(C)NC(=O)[C@@H](N)Cc1ccc(O)cc1)[C@@H](C)O)[C@@H](C)CC)[C@@H](C)CC)[C@@H](C)CC)C(=O)N[C@@H](CCC(=O)O)C(=O)N[C@@H](Cc1c[nH]c2ccccc12)C(=O)N[C@@H](CC(C)C)C(=O)N[C@@H](CC(C)C)C(=O)N[C@@H](C)C(=O)N[C@@H](CCC(N)=O)C(=O)N[C@@H](CCCNC(=N)N)C(=O)NCC(=O)O` [SEQ ID NO: 13, H2N-Y-Aib-E-G-T-F-I-S-D-L-S-I-Aib-K[{AEEA}2-gGlu-C18OH]-D-R-I-H-Q-E-E-F-I-E-W-L-L-A-Q-R-G-OH], the IC50 was 116 nM in series [3] and 0.9 nM in series [5]. The compound further yielded an EC50 in series [6] of 0.0285 nM.
